“And” between values parts separate entries of the source, which are not always exact repeats. Equal entries are not always repeated.

The target of this assay is PDE V (Homo sapiens, UniProt O76074). Kind of assay: PDE V isoenzyme inhibition (IC50). The class given is biochemical. Particulars: for IC50: concentration required to provide 50% inhibition of PDE V; for ratio of PDE VI IC50/PDE V IC50: enzyme selectivity, PDE V relative to PDE VI. An excerpt: The compounds of the invention can be useful for inhibiting PDE V isoenzymes. Isoenzyme activities and isoenzyme selectivities for particular compounds can be evaluated in a number of ways.

As for `CCN1C(=O)c2c(nc(NC3CCOCC3)n2Cc2ccc(O)c(Br)c2)N2CCN=C12` [Compound 1], the IC50 (in general, the point on the concentration scale where inhibition reaches its midpoint) is ≤ 10 nM.
`CCN1C(=O)c2c(nc(NC3CCOCC3)n2Cc2ccc(O)c(Cl)c2)N2CCN=C12` [Compound 2]: the IC50 is < 8 nM and the “ratio of PDE VI IC50/PDE V IC50” value is > 600.
Take `CCN1C(=O)c2c(nc(Br)n2Cc2cc(Br)c3c(c2)CCO3)N2C[C@@H](Cc3ccccc3)N=C12` [Compound 3]: the IC50 is ≤ 10 nM.
The same measure, in the same setting: the same measure for `CCN1C(=O)c2c(nc(C(=O)OC)n2Cc2cc(Cl)c3c(c2)CCO3)N2C[C@@H](Cc3ccccc3)N=C12` [Compound 4]: ≤ 6 nM; for `CCN1C(=O)c2c(nc(NC3CCCCC3)n2Cc2ccc(O)c(Cl)c2)N2C1=N[C@@H]1CCC[C@@H]12` [Compound 5]: ≤ 6 nM.
Consider `CCN1C(=O)c2c(ncn2Cc2cc(Cl)c3c(c2)CCO3)N2C[C@@H](Cc3ccccc3)N=C12` [Compound 6], for which the IC50 was ≤ 5 nM.
As to `CCN1C(=O)c2nc(C#Cc3ccccc3)n(Cc3ccc(OC(C)=O)cc3)c2N2CC3(CCCC3)N=C12` [Compound 7], the IC50 is ≤ 5 nM.
Still for that read-out and setting: the same measure for `CCN1C(=O)c2c(nc(C(N)=O)n2Cc2cc(Br)c3c(c2)CCO3)N2C[C@@H](Cc3ccccc3)N=C12` [Compound 8]: ≤ 5 nM; for `CCN1C(=O)c2c(nc(NC3CCCCC3)n2Cc2ccc(O)c(Br)c2)N2C[C@@H](Cc3ccccc3)N=C12` [Compound 9]: ≤ 5 nM.
Turning to `CCN1C(=O)c2c(nc(C(N)=O)n2Cc2cc(Cl)c3c(c2)CCO3)N2C[C@@H](Cc3ccccc3)N=C12` [Compound 10], the IC50 was ≤ 5 nM.
On to `CCN1C(=O)c2c(nc(C=NO)n2Cc2ccc(O)c(Cl)c2)N2C[C@@H](Cc3ccccc3)N=C12` [Compound 11], for which the IC50 was ≤ 5 nM.
`CCN1C(=O)c2c(nc(NC3CCCCC3)n2Cc2ccc(O)c(Br)c2)N2C1=N[C@@H]1CCC[C@@H]12` [Compound 12]: the 50% inhibitory concentration (IC50) was ≤ 5 nM.
Same read-out and setting: the same measure for `CCN1C(=O)c2c(nc(OCc3ccccc3)n2Cc2ccc(O)c(Cl)c2)N2C[C@@H](Cc3ccccc3)N=C12` [Compound 13]: ≤ 5 nM; for `CCN1C(=O)c2c(nc(NC3CCCCC3)n2Cc2ccc(OC)c(Br)c2)N2CCN=C12` [Compound 14]: ≤ 5 nM; for `CCN1C(=O)c2c(nc(Br)n2Cc2cc(Cl)c3c(c2)CCO3)N2C[C@@H](Cc3ccccc3)N=C12` [Compound 15]: ≤ 5 nM.
Still for that read-out and setting: next, `CCN1C(=O)c2c(nc(NC3CCOCC3)n2Cc2ccc(OC)c(Cl)c2)N2CCN=C12` [Compound 16]: ≤ 10 nM and ≤ 5 nM and ≤ 6 nM and ~1.5 nM; `CCN1C(=O)c2c(nc(NC3CCCCC3)n2Cc2ccc(OC)c(Br)c2)N2C1=N[C@@H]1CCC[C@@H]12` [Compound 17]: ≤ 5 nM; `CCN1C(=O)c2c(nc(NC3CCOCC3)n2Cc2ccc(OC)c(Br)c2)N2CCN=C12` [Compound 18]: ≤ 5 nM.
Same read-out and setting: the same measure for `CCN1C(=O)c2c(nc(C#Cc3ccccc3)n2Cc2ccc(O)c(Cl)c2)N2C[C@@H](Cc3ccccc3)N=C12` [Compound 19]: ≤ 5 nM.
As for `CCN1C(=O)c2c(nc(NC3CCOCC3)n2Cc2ccc(OC)c(Br)c2)N2CCCN=C12` [Compound 20], the concentration for half-maximal inhibition (IC50) was ≤ 5 nM.
On the same count and under the same terms, the same measure for `CCN1C(=O)c2c(nc(NC3CCOCC3)n2Cc2ccc(OC)c(Cl)c2)N2CCCN=C12` [Compound 21]: ≤ 10 nM.
On the same count and under the same terms, the same measure for `CCN1C(=O)c2nc(C#Cc3ccccc3)n(Cc3ccc(O)cc3)c2N2CC3(CCCC3)N=C12` [Compound 22]: ≤ 5 nM.
As for `CCN1C(=O)c2c(nc(NC3CCOCC3)n2Cc2ccc(O)c(C)c2)N2CCN=C12` [Compound 30], the IC50 was ~52 nM and the “ratio of PDE VI IC50/PDE V IC50” value was > 190.
On to `CCN1C(=O)c2c(nc(OC)n2Cc2ccc(OC)c(C#N)c2)N2C[C@@H](Cc3ccccc3)N=C12` [Compound 34], for which the IC50 was ≤ 10 nM and ~10 nM.
The same measure, in the same setting: next, `CCN1C(=O)c2c(nc(NC3CCOCC3)n2Cc2cc(Cl)c3c(c2)CCO3)N2CCN=C12` [Compound 35]: ~18 nM; `CCN1C(=O)c2c(nc(NC3CCOCC3)n2Cc2cc(Br)c3c(c2)CCO3)N2CCN=C12` [Compound 36]: ~18 nM.
On the same count and under the same terms, next, `CCN1C(=O)c2c(nc(NC3CCCCC3)n2Cc2ccc(OC)c(Cl)c2)N2CCN=C12` [Compound 42]: ≤ 5 nM; `CCN1C(=O)c2c(nc(NC3CCCC3)n2Cc2ccc(OC)c(Cl)c2)N2CCN=C12` [Compound 43]: ≤ 5 nM; `CCN1C(=O)c2c(nc(C#Cc3ccccc3)n2Cc2cc(Cl)c(OC)c(Cl)c2)N2CC3(CCCC3)N=C12` [Compound 44]: ≤ 5 nM.
The same measure, in the same setting: the same measure for `CCOc1nc2c(n1Cc1ccc(O)c(Br)c1)C(=O)N(CC)C1=N[C@H](Cc3ccccc3F)CN12` [Compound 54]: ≤ 5 nM.
As for `CCN1C(=O)c2c(nc(N[C@@H]3CCC[C@H]3O)n2Cc2ccc(OC)c(Br)c2)N2C1=NCC2C` (stereo partly drawn) [Compound 56], the IC50 is ≤ 5 nM.
Same read-out and setting: the same measure for `CCN1C(=O)c2c(nc(NC3CCSCC3)n2Cc2ccc(OC)c(Cl)c2)N2CCN=C12` [Compound 57]: ≤ 10 nM; for `CCN1C(=O)c2c(nc(NC3CCSCC3)n2Cc2ccc(OC)c(Br)c2)N2CCN=C12` [Compound 58]: ≤ 5 nM; for `CCN1C(=O)c2c(nc(N[C@@H]3CC[C@H](O)C3)n2Cc2ccc(OC)c(Br)c2)N2CCN=C12` [Compound 59]: ≤ 10 nM.

Values taken from patent publication US6969719B2, “Polycyclic guanine phosphodiesterase V inhibitors” (Schering Corporation, priority 2001, dated 2005).
